According to ChEMBL document CHEMBL5344464, “Forgotten Natural Products: Semisynthetic Development of Blasticidin S As an Antibiotic Lead” (ACS Med Chem Lett, 2024):
In brackets after ≈: the same amount, converted by molar mass.

Tests used:
Enterococcus faecalis = assay: Antibacterial activity against Enterococcus faecalis ATCC 29212 assessed as minimum inhibitory concentration incubated for 24 hrs by broth microdilution method; type: functional
Klebsiella pneumoniae = assay: Antibacterial activity against Klebsiella pneumoniae ATCC 29665 assessed as minimum inhibitory concentration incubated for 16 to 18 hrs by broth microdilution method; type: functional; settings: time 16-18 hrs

MIC90 (Enterococcus faecalis) | MIC90 (Klebsiella pneumoniae) | Compound
16 µg/mL (≈ 36.7 µM) |  | CNC(=O)[C@H]1O[C@@H](n2ccc(N)nc2=O)C=C[C@@H]1NC(=O)C[C@@H](N)CCN(C)C(=N)N
 | 128 µg/mL (≈ 276 µM) | CCCNC(=O)[C@H]1O[C@@H](n2ccc(N)nc2=O)C=C[C@@H]1NC(=O)C[C@@H](N)CCN(C)C(=N)N
16 µg/mL (≈ 35.6 µM) |  | CN(C)C(=O)[C@H]1O[C@@H](n2ccc(N)nc2=O)C=C[C@@H]1NC(=O)C[C@@H](N)CCN(C)C(=N)N

Compound | MIC90 (Enterococcus faecalis) | MIC90 (Klebsiella pneumoniae)
CN(CC[C@H](N)CC(=O)N[C@H]1C=C[C@H](n2ccc(N)nc2=O)O[C@@H]1C(=O)O)C(=N)N [BLASTICIDIN_S] | 32 µg/mL (≈ 75.7 µM) | 
